We go through 34 compounds from patent US7851474B2, “Dipiperazinyl ketones and related analogues” (Neurogen Corporation, priority 2005, dated 2010).

The assay deals with T1, chimeric human H3 receptor (Homo sapiens, UniProt Q9Y5N1, E19D).
T1 construct: made in house; host or cells: Sf9 insect cells (baculovirus infection); P2 membrane preparation
T1 sequence (Q9Y5N1 with tags, fused parts or gaps E19D): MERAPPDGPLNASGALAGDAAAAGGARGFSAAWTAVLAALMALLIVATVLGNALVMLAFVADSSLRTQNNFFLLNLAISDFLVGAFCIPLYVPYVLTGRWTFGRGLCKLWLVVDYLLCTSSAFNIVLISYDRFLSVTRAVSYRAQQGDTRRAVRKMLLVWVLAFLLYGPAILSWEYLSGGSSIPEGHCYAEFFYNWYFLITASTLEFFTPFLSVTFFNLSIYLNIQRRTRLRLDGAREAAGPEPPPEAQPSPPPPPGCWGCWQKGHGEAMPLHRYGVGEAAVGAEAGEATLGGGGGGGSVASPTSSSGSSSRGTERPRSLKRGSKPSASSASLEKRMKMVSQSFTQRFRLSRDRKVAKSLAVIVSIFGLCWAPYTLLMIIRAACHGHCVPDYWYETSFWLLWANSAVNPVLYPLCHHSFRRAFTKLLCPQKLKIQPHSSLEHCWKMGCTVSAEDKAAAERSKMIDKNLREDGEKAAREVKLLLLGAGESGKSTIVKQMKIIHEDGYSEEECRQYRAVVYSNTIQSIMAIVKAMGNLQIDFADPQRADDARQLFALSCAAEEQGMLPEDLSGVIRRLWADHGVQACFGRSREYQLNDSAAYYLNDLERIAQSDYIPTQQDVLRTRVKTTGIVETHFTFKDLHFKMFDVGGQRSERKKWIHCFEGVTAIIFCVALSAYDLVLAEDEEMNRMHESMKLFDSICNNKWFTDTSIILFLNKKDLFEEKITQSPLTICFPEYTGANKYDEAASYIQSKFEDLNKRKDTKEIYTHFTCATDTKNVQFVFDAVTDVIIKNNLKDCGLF
Put plainly: Chimeric human H3 receptor screening GTP binding assay (inhibition of histamine-stimulated GTP-gamma35S binding, Example 8). It is filed as biochemical. The note with it: 1 h; Table II, "+" in the column headed Ki; assay of Example 8; read-out: percent inhibition of agonist-induced GTP-gammaS binding to H3. An outline of the steps:
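Sf9 membranes co-expressing the chimeric receptor and a heterotrimeric G-protein (35 μg protein) in Tris pH 7.4 buffer with 10 μM GDP; compound at 4 μM plus 1 μM histamine, 125 pM GTP-gamma35S, 60 min at room temperature. Filter-bound radioactivity read; non-specific binding defined with 10 uM GTP-gammaS; percent inhibition of histamine signal.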
(GTPγS is a poorly hydrolysed GTP analogue; its binding reports G protein activation.)
The inhibition is the share of the control response that was lost under treatment. Consider `O=C(/C=C/c1ccccc1C(F)(F)F)N1CCN(CC(=O)N2CCN(C3CCC3)CC2)CC1` [Compound 614, 1-cyclobutyl-4-[(4-{(2E)-3-[2-(trifluoromethyl)phenyl]prop-2-enoyl}piperazin-1-yl)acetyl]piperazine], for which the inhibition at 4 µM is above 90%.
Take `O=C(/C=C/c1cccc(C(F)(F)F)c1)N1CCN(CC(=O)N2CCN(C3CCC3)CC2)CC1` [Compound 615, 1-cyclobutyl-4-[(4-{(2E)-3-[3-(trifluoromethyl)phenyl]prop-2-enoyl}piperazin-1-yl)acetyl]piperazine]: the inhibition at 4 µM is above 90%.
Turning to `O=C(/C=C/c1ccc(C(F)(F)F)cc1)N1CCN(CC(=O)N2CCN(C3CCC3)CC2)CC1` [Compound 616, 1-cyclobutyl-4-[(4-{(2E)-3-[4-(trifluoromethyl)phenyl]prop-2-enoyl}piperazin-1-yl)acetyl]piperazine], the inhibition at 4 µM was above 90%.
As to `Cc1ccc(Oc2ncccc2C(=O)N2CCN(CC(=O)N3CCN(C4CCC4)CC3)CC2)c(C)c1` [Compound 617, 1-cyclobutyl-4-[(4-{[2-(2,4-dimethylphenoxy)pyridin-3-yl]carbonyl}piperazin-1-yl)acetyl]piperazine], the inhibition at 4 µM is above 90%.
To `CCSc1ncccc1C(=O)N1CCN(CC(=O)N2CCN(C3CCC3)CC2)CC1` [Compound 618, 1-cyclobutyl-4-[(4-{[2-(ethylthio)pyridin-3-yl]carbonyl}piperazin-1-yl)acetyl]piperazine] belongs above 90%; to `CSc1ncccc1C(=O)N1CCN(CC(=O)N2CCN(C3CCC3)CC2)CC1` [Compound 619], above 90%; to `O=C(CN1CCN(C(=O)c2cccnc2Sc2ccccc2)CC1)N1CCN(C2CCC2)CC1` [Compound 620, 1-cyclobutyl-4-[(4-{[2-(phenylthio)pyridin-3-yl]carbonyl}piperazin-1-yl)acetyl]piperazine], above 90%.
As to `O=C(Cc1ccccc1OC(F)(F)F)N1CCN(CC(=O)N2CCN(C3CCC3)CC2)CC1` [Compound 621, 1-cyclobutyl-4-[(4-{[2-(trifluoromethoxy)phenyl]acetyl}piperazin-1-yl)acetyl]piperazine], the inhibition at 4 µM was above 90%.
As for `O=C(Cc1ccccc1C(F)(F)F)N1CCN(CC(=O)N2CCN(C3CCC3)CC2)CC1` [Compound 622, 1-cyclobutyl-4-[(4-{[2-(trifluoromethyl)phenyl]acetyl}piperazin-1-yl)acetyl]piperazine], the inhibition at 4 µM is above 90%.
For the compound `O=C(Cc1cccc(C(F)(F)F)c1F)N1CCN(CC(=O)N2CCN(C3CCC3)CC2)CC1` [Compound 623, 1-cyclobutyl-4-[(4-{[2-fluoro-3-(trifluoromethyl)phenyl]acetyl}piperazin-1-yl)acetyl]piperazine], the inhibition at 4 µM is above 90%.
The result for `Cc1onc(-c2c(Cl)cccc2Cl)c1C(=O)N1CCN(CC(=O)N2CCN(C3CCC3)CC2)CC1` [Compound 624, 1-cyclobutyl-4-[(4-{[3-(2,6-dichlorophenyl)-5-methylisoxazol-4-yl]carbonyl}piperazin-1-yl)acetyl]piperazine] reads above 90%; that for `CSc1sc(C(=O)N2CCN(CC(=O)N3CCN(C4CCC4)CC3)CC2)c2c1C=CCC2` [Compound 625, 1-cyclobutyl-4-[(4-{[3-(methylthio)-6,7-dihydro-2-benzothien-1-yl]carbonyl}piperazin-1-yl)acetyl]piperazine], above 90%.
As to `O=C(Cc1cccc(OC(F)(F)F)c1)N1CCN(CC(=O)N2CCN(C3CCC3)CC2)CC1` [Compound 626, 1-cyclobutyl-4-[(4-{[3-(trifluoromethoxy)phenyl]acetyl}piperazin-1-yl)acetyl]piperazine], the inhibition at 4 µM is above 90%.
To `O=C(Cc1cccc(C(F)(F)F)c1)N1CCN(CC(=O)N2CCN(C3CCC3)CC2)CC1` [Compound 627, 1-cyclobutyl-4-[(4-{[3-(trifluoromethyl)phenyl]acetyl}piperazin-1-yl)acetyl]piperazine] belongs above 90%; to `CSc1ccc(CC(=O)N2CCN(CC(=O)N3CCN(C4CCC4)CC3)CC2)cc1` [Compound 628, 1-cyclobutyl-4-[(4-{[4-(methylthio)phenyl]acetyl}piperazin-1-yl)acetyl]piperazine], above 90%; to `O=C(COc1ccc(OC(F)(F)F)cc1)N1CCN(CC(=O)N2CCN(C3CCC3)CC2)CC1` [Compound 629, 1-cyclobutyl-4-[(4-{[4-(trifluoromethoxy)phenoxy]acetyl}piperazin-1-yl)acetyl]piperazine], above 90%.
Turning to `O=C(Cc1ccc(OC(F)(F)F)cc1)N1CCN(CC(=O)N2CCN(C3CCC3)CC2)CC1` [Compound 630, 1-cyclobutyl-4-[(4-{[4-(trifluoromethoxy)phenyl]acetyl}piperazin-1-yl)acetyl]piperazine], the inhibition at 4 µM is above 90%.
Consider `O=C(Cc1ccc(C(F)(F)F)cc1)N1CCN(CC(=O)N2CCN(C3CCC3)CC2)CC1` [Compound 631, 1-cyclobutyl-4-[(4-{[4-(trifluoromethyl)phenyl]acetyl}piperazin-1-yl)acetyl]piperazine], for which the inhibition at 4 µM was above 90%.
`O=C(CN1CCN(C(=O)c2cnccc2C(F)(F)F)CC1)N1CCN(C2CCC2)CC1` [Compound 632, 1-cyclobutyl-4-[(4-{[4-(trifluoromethyl)pyridin-3-yl]carbonyl}piperazin-1-yl)acetyl]piperazine]: the inhibition at 4 µM is above 90%.
To `CSc1ccc(C(=O)N2CCN(CC(=O)N3CCN(C4CCC4)CC3)CC2)s1` [Compound 633, 1-cyclobutyl-4-[(4-{[5-(methylthio)-2-thienyl]carbonyl}piperazin-1-yl)acetyl]piperazine] belongs above 90%.
The result for `O=C(CN1CCN(C(=O)c2cncc(C#Cc3ccccc3)c2)CC1)N1CCN(C2CCC2)CC1` [Compound 634, 1-cyclobutyl-4-[(4-{[5-(phenylethynyl)pyridin-3-yl]carbonyl}piperazin-1-yl)acetyl]piperazine] reads above 90%.
To `O=C(CN1CCN(C(=O)c2ccc(-n3cccc3)nc2)CC1)N1CCN(C2CCC2)CC1` [Compound 635, 1-cyclobutyl-4-[(4-{[6-(1H-pyrrol-1-yl)pyridin-3-yl]carbonyl}piperazin-1-yl)acetyl]piperazine] belongs above 90%.
For `O=C(CN1CCN(C(=O)c2ccc(OCC(F)(F)F)nc2)CC1)N1CCN(C2CCC2)CC1` [Compound 636, 1-cyclobutyl-4-[(4-{[6-(2,2,2-trifluoroethoxy)pyridin-3-yl]carbonyl}piperazin-1-yl)acetyl]piperazine], the inhibition at 4 µM was above 90%.
To `CC(Oc1ccc(OC(F)(F)F)cc1)C(=O)N1CCN(CC(=O)N2CCN(C3CCC3)CC2)CC1` (stereo not shown) [Compound 637, 1-cyclobutyl-4-[(4-{2-[4-(trifluoromethoxy)phenoxy]propanoyl}piperazin-1-yl)acetyl]piperazine] belongs above 90%; to `O=C(CN1CCN(C(=O)c2ccncc2)CC1)N1CCN(C2CCC2)CC1` [Compound 655, 1-cyclobutyl-4-[(4-isonicotinoylpiperazin-1-yl)acetyl]piperazine], above 90%; to `COc1ccc(OC)c(Sc2ncccc2C(=O)N2CCN(CC(=O)N3CCN(C4CCC4)CC3)CC2)c1` [Compound 659, 1-cyclobutyl-4-{[4-({2-[(2,5-dimethoxyphenyl)thio]pyridin-3-yl}carbonyl)piperazin-1-yl]acetyl}piperazine], above 90%.
The result for `Cc1nc(-c2ccc(C(F)(F)F)cc2)sc1C(=O)N1CCN(CC(=O)N2CCN(C3CCC3)CC2)CC1` [Compound 660, 1-cyclobutyl-4-{[4-({4-methyl-2-[4-(trifluoromethyl)phenyl]-1,3-thiazol-5-yl}carbonyl)piperazin-1-yl]acetyl}piperazine] reads above 90%; that for `Cn1nc(C(F)(F)F)cc1-c1ccc(C(=O)N2CCN(CC(=O)N3CCN(C4CCC4)CC3)CC2)s1` [Compound 661, 1-cyclobutyl-4-{[4-({5-[1-methyl-3-(trifluoromethyl)-1H-pyrazol-5-yl]-2-thienyl}carbonyl)piperazin-1-yl]acetyl}piperazine], above 90%.
Regarding `O=C(CN1CCN(C(=O)c2cccc3ccccc23)CC1)N1CCN(C2CCC2)CC1` [Compound 662, 1-cyclobutyl-4-{[4-(1-naphthoyl)piperazin-1-yl]acetyl}piperazine], the inhibition at 4 µM is above 90%.
To `O=C(Cc1cccc2ccccc12)N1CCN(CC(=O)N2CCN(C3CCC3)CC2)CC1` [Compound 663, 1-cyclobutyl-4-{[4-(1-naphthylacetyl)piperazin-1-yl]acetyl}piperazine] belongs above 90%; to `O=C(CN1CCN(C(=O)c2cccc(Cl)c2Cl)CC1)N1CCN(C2CCC2)CC1` [Compound 664, 1-cyclobutyl-4-{[4-(2,3-dichlorobenzoyl)piperazin-1-yl]acetyl}piperazine], above 90%; to `O=C(CN1CCN(C(=O)C2COc3ccccc3O2)CC1)N1CCN(C2CCC2)CC1` (stereo not shown) [Compound 668, 1-cyclobutyl-4-{[4-(2,3-dihydro-1,4-benzodioxin-2-ylcarbonyl)piperazin-1-yl]acetyl}piperazine], above 90%.
Regarding `O=C(CN1CCN(C(=O)c2ccc3c(c2)CCO3)CC1)N1CCN(C2CCC2)CC1` [Compound 669, 1-cyclobutyl-4-{[4-(2,3-dihydro-1-benzofuran-5-ylcarbonyl)piperazin-1-yl]acetyl}piperazine], the inhibition at 4 µM is above 90%.
For `COc1cccc(C(=O)N2CCN(CC(=O)N3CCN(C4CCC4)CC3)CC2)c1OC` [Compound 670, 1-cyclobutyl-4-{[4-(2,3-dimethoxybenzoyl)piperazin-1-yl]acetyl}piperazine], the inhibition at 4 µM was above 90%.
